According to ChEMBL document CHEMBL1909046, “DrugMatrix in vitro pharmacology data”:

Key:
[1] = DRUGMATRIX: Purinergic P2X radioligand binding (ligand: [3H] alpha, beta-Methylene-ATP); format: cell membranes, Oryctolagus cuniculus, New Zealand albino, Urinary bladder, Membrane; details: Not Active = under 50% inhibition at 10 µM
Nitric oxide synthase 1 = Nitric oxide synthase 1 (Rattus norvegicus, UniProt P29476); format: tissue-based, Cerebellum; also: in other assays of this panel Not Active means under 50% inhibition at 10 µM
Chain of Nitric oxide synthase 1 (P29476 whole entry): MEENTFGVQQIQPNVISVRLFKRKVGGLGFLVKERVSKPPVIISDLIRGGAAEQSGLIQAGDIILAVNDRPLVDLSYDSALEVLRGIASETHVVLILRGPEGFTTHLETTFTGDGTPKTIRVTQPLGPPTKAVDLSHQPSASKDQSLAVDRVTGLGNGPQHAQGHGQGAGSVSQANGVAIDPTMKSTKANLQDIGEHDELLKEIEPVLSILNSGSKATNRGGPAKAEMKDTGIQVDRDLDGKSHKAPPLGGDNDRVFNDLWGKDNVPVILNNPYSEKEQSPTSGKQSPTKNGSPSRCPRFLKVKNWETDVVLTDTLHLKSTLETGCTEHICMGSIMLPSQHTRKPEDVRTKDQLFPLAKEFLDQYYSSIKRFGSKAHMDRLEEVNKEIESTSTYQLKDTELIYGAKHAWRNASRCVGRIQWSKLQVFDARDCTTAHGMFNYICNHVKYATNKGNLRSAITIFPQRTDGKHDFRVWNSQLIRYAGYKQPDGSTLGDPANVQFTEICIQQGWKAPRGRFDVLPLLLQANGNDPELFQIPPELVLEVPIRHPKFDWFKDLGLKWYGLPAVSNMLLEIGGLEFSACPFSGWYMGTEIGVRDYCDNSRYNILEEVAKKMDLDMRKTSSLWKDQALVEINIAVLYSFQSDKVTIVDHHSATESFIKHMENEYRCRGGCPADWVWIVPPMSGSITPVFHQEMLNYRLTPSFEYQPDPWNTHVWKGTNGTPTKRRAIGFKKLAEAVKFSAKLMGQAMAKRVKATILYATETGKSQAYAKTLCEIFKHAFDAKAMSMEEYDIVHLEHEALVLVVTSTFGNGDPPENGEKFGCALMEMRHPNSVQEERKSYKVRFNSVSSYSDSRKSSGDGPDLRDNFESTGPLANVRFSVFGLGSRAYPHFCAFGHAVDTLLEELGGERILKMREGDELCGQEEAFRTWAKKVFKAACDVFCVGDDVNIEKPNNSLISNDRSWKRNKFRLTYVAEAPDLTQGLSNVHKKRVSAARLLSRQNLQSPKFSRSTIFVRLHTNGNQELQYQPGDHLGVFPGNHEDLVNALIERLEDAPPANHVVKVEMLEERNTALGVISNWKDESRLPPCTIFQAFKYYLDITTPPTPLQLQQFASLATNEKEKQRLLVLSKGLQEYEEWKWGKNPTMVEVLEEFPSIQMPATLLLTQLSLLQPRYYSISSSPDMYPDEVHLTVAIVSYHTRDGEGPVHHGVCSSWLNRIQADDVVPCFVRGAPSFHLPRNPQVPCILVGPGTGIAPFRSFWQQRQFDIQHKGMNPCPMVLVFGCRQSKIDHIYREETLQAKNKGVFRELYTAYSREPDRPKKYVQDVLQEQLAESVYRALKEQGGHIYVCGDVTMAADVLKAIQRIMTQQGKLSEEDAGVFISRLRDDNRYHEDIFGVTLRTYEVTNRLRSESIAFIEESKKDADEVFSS

Caspase-1 = biological target: T1, Caspase-1 (Homo sapiens, UniProt P29466); set-up: species or system Escherichia coli;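 also: Caspase-1 enzyme inhibition assay with a peptide substrate; in other assays of this panel Not Active means under 50% inhibition at 10 µM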
T1 sequence (P29466 whole entry): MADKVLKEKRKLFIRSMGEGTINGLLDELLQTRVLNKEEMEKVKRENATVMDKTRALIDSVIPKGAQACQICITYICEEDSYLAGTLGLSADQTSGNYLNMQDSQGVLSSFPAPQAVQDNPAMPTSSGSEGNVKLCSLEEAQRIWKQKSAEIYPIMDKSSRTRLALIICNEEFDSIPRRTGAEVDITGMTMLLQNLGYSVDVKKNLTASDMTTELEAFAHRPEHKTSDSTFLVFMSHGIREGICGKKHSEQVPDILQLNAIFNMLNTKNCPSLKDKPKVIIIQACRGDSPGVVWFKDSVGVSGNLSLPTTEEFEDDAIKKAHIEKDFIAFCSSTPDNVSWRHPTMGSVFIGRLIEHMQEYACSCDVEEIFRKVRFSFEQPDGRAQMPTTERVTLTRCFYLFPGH

[2] = DRUGMATRIX: Phosphodiesterase PDE3 enzyme inhibition (substrate: [3H]cAMP + cAMP); format: tissue-based, Homo sapiens; details: platelet, Not Active = under 50% inhibition at 10 µM
Substance-K receptor = biological target: T2, Substance-K receptor (Homo sapiens, UniProt P21452); format: cell membranes, CHO, Membrane; also: in other assays of this panel Not Active means under 50% inhibition at 10 µM
T2 sequence (P21452 whole entry): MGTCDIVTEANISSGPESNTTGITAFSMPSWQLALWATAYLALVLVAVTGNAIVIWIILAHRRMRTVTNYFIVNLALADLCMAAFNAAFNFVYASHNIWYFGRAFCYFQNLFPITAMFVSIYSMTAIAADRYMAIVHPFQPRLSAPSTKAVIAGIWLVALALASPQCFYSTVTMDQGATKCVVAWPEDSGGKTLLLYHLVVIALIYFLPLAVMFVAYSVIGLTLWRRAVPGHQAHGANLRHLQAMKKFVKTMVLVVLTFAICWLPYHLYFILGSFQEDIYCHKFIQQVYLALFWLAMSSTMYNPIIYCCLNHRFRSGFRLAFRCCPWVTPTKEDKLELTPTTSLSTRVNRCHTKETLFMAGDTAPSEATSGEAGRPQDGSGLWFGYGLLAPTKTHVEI

[3] = biological target: T3, Muscarinic acetylcholine receptor M5 (Homo sapiens, UniProt P08912); format: cell membranes, CHO-K1, Membrane; details: for Ki: read-out: Ki; as to all read-outs here: in other assays of this panel Not Active means under 50% inhibition at 10 µM
T3 sequence (P08912 whole entry): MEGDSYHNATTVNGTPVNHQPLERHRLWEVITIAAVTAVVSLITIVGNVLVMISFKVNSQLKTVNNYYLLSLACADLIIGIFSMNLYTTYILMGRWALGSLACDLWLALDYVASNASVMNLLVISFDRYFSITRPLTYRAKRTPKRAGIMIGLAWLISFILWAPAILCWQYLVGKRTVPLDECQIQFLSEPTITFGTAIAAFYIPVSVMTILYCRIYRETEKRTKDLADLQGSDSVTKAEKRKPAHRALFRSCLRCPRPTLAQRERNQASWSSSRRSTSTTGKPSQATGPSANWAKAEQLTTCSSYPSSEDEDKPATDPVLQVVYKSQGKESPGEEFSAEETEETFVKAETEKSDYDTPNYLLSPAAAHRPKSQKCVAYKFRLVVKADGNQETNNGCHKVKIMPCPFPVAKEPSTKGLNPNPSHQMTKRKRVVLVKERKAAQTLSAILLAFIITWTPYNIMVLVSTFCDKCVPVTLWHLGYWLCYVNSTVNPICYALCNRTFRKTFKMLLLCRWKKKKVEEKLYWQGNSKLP

Estrogen receptor beta = Estrogen receptor beta (Homo sapiens, UniProt Q92731); details: sf9; also: in other assays of this panel Not Active means under 50% inhibition at 10 µM
Chain of Estrogen receptor beta (Q92731 whole entry): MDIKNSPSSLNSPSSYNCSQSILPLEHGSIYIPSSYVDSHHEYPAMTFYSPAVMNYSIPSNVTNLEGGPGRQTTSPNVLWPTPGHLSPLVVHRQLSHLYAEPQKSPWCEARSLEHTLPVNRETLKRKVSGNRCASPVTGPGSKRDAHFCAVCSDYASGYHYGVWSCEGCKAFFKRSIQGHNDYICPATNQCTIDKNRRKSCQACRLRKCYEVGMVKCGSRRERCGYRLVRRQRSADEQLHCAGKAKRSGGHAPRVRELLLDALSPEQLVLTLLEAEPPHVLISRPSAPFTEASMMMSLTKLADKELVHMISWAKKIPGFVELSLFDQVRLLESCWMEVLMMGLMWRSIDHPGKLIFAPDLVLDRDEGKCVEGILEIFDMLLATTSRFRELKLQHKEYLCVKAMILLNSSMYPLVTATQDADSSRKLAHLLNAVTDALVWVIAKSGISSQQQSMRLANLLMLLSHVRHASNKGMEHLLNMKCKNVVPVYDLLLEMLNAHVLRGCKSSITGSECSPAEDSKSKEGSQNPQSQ

| Structure (SMILES) | IC50 [1] | Ki [1] | IC50 (Nitric oxide synthase 1) | IC50 (Caspase-1) | IC50 [2] | Ki [2] | IC50 (Substance-K receptor; cho) | IC50 ([3]; cho-k1) | IC50 (Estrogen receptor beta) | IC50 (Substance-K receptor; read-out: IC50) [µM] | Ki (Substance-K receptor; read-out: Ki) [µM] | IC50 ([3]; read-out: IC50) [µM] | Ki [3] [µM] | IC50 ([2]; read-out: IC50) [µM] |
| --- | --- | --- | --- | --- | --- | --- | --- | --- | --- | --- | --- | --- | --- | --- |
| CCOc1nc2cccc(C(=O)O)c2n1Cc1ccc(-c2ccccc2-c2nnn[nH]2)cc1 | Not Active | Not Active | Not Active | Not Active | Not Active | Not Active | Not Active | Not Active | Not Active |  |  |  |  |  |
| O=C(O)CCCc1cccs1 | Not Active | Not Active | Not Active | Not Active | Not Active | Not Active | Not Active | Not Active | Not Active |  |  |  |  |  |
| COc1ccccc1N | Not Active | Not Active | Not Active | Not Active | Not Active | Not Active | Not Active | Not Active |  |  |  |  |  |  |
| O=C(c1ccccc1F)N1CCC(Cc2ccccc2)CC1 | Not Active | Not Active | Not Active | Not Active | Not Active | Not Active | Not Active | Not Active | Not Active |  |  |  |  |  |
| Cc1c(O)cccc1C(=O)N[C@@H](CSc1ccccc1)[C@H](O)CN1C[C@H]2CCCC[C@H]2C[C@H]1C(=O)NC(C)(C)C | Not Active | Not Active | Not Active | Not Active | Not Active | Not Active |  |  |  | 29.4 | 9.79 | 86.1 | 61.8 |  |
| NC12CC3CC(CC(C3)C1)C2 [AMANTADINE] | Not Active | Not Active | Not Active | Not Active | Not Active | Not Active | Not Active | Not Active |  |  |  |  |  |  |
| CC(C)c1c(C(=O)Nc2ccccc2)c(-c2ccccc2)c(-c2ccc(F)cc2)n1CC[C@@H](O)C[C@@H](O)CC(=O)O [ATORVASTATIN] | Not Active | Not Active | Not Active | Not Active | Not Active | Not Active | Not Active | Not Active |  |  |  |  |  |  |
| COc1cc(OC)c(C(=O)CCCN2CCCC2)c(OC)c1 [BUFLOMEDIL] | Not Active | Not Active | Not Active | Not Active | Not Active | Not Active | Not Active | Not Active |  |  |  |  |  |  |
| Cn1c(=O)c2c(ncn2C)n(C)c1=O [CAFFEINE] | Not Active | Not Active | Not Active | Not Active | Not Active | Not Active | Not Active | Not Active |  |  |  |  |  |  |
| CC(C)NCC(O)c1ccccc1Cl (stereo unspecified) [CLORPRENALINE] | Not Active | Not Active | Not Active | Not Active | Not Active | Not Active | Not Active | Not Active |  |  |  |  |  |  |
| C[S+](C)[O-] [DIMETHYL SULFOXIDE] | Not Active | Not Active | Not Active | Not Active | Not Active | Not Active | Not Active | Not Active |  |  |  |  |  |  |
| CC(O)(P(=O)(O)O)P(=O)(O)O [ETIDRONIC ACID] | Not Active | Not Active | Not Active | Not Active | Not Active | Not Active | Not Active | Not Active |  |  |  |  |  |  |
| CCOC(=O)c1ncn2c1CN(C)C(=O)c1cc(F)ccc1-2 [FLUMAZENIL] | Not Active | Not Active | Not Active | Not Active | Not Active | Not Active | Not Active | Not Active |  |  |  |  |  |  |
| O=C(O)P(=O)(O)O [FOSCARNET] | Not Active | Not Active | Not Active | Not Active | Not Active | Not Active | Not Active | Not Active |  |  |  |  |  |  |
| O=c1c(-c2ccc(O)cc2)coc2cc(O)cc(O)c12 [GENISTEIN] | Not Active | Not Active | Not Active | Not Active |  |  | Not Active | Not Active |  |  |  |  |  | 11 |
| C[N+](C)(C)C[C@H](O)CC(=O)[O-] [LEVOCARNITINE] | Not Active | Not Active | Not Active | Not Active | Not Active | Not Active | Not Active | Not Active |  |  |  |  |  |  |
| C[C@H]1COc2c(N3CCN(C)CC3)c(F)cc3c(=O)c(C(=O)O)cn1c23.C[C@H]1COc2c(N3CCN(C)CC3)c(F)cc3c(=O)c(C(=O)O)cn1c23.O [LEVOFLOXACIN] | Not Active | Not Active | Not Active | Not Active | Not Active | Not Active | Not Active | Not Active |  |  |  |  |  |  |
| CCn1cc(C(=O)O)c(=O)c2cc(F)c(N3CCNC(C)C3)c(F)c21 (stereo unspecified) [LOMEFLOXACIN] | Not Active | Not Active | Not Active | Not Active | Not Active | Not Active | Not Active | Not Active |  |  |  |  |  |  |
| CN(C)C(=N)NC(=N)N [METFORMIN] | Not Active | Not Active | Not Active | Not Active | Not Active | Not Active | Not Active | Not Active |  |  |  |  |  |  |
| CN(C)C(=O)Oc1cccc([N+](C)(C)C)c1.[Br-] [NEOSTIGMINE BROMIDE] | Not Active | Not Active | Not Active | Not Active | Not Active | Not Active | Not Active | Not Active |  |  |  |  |  |  |
| CN1C(=O)CN=C(c2ccccc2)c2cc([N+](=O)[O-])ccc21 [NIMETAZEPAM] | Not Active | Not Active | Not Active | Not Active | Not Active | Not Active | Not Active | Not Active |  |  |  |  |  |  |
| COc1ccc2c(c1OC)C(=O)O[C@@H]2[C@H]1c2c(cc3c(c2OC)OCO3)CCN1C [NOSCAPINE] | Not Active | Not Active | Not Active | Not Active | Not Active | Not Active | Not Active | Not Active |  |  |  |  |  |  |
| N=C(N)c1ccc(OCCCCCOc2ccc(C(=N)N)cc2)cc1 [PENTAMIDINE] | Not Active | Not Active | Not Active | Not Active | Not Active | Not Active | Not Active |  |  |  |  | 2.88 | 2.07 |  |
| NNCCc1ccccc1 [PHENELZINE] | Not Active | Not Active | Not Active | Not Active | Not Active | Not Active | Not Active | Not Active |  |  |  |  |  |  |
| CCCNC(C)C(=O)Nc1ccccc1C (stereo unspecified) [PRILOCAINE] | Not Active | Not Active | Not Active | Not Active | Not Active | Not Active | Not Active | Not Active |  |  |  |  |  |  |
| C[C@]12C=CC(=O)C=C1CC[C@H]1[C@@H]3C[C@@H](O)[C@](O)(C(=O)CO)[C@@]3(C)C[C@H](O)[C@@]12F [TRIAMCINOLONE] | Not Active | Not Active | Not Active | Not Active | Not Active | Not Active | Not Active | Not Active |  |  |  |  |  |  |
| CCN(C(C)=O)c1cccc(-c2ccnc3c(C#N)cnn23)c1 [ZALEPLON] | Not Active | Not Active | Not Active | Not Active | Not Active | Not Active | Not Active | Not Active |  |  |  |  |  |  |
